Measured values published in paper PMC7190597, “Characterisation of four hotdog-fold thioesterases for their implementation in a novel organic acid production system” (Applied Microbiology and Biotechnology, 2020).

Experiments:
[1] = target: T1, PA2801 (Pseudomonas aeruginosa, UniProt Q9I042); test: DTNB assay on clarified lysate, empty-vector lysate control; type: biochemical; details: 0.2 mM substrate, 100 mM triethanolamine pH 8, 25 °C, 0.4 mM DTNB
T1 construct: full-length in pET29a, expressed in E. coli BL21(DE3), clarified lysate
T1 sequence (Q9I042 1-134): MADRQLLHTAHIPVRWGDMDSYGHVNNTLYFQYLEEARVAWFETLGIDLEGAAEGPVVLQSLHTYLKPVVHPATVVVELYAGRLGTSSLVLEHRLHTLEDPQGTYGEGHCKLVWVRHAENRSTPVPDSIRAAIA

[2] = target: T2, YbdB (Escherichia coli, UniProt P0A8Y8); test: as above; type: biochemical; details: 0.2 mM substrate, 100 mM triethanolamine pH 8, 25 °C, 0.4 mM DTNB
T2 construct: gene entH; full-length in pET29a, expressed in E. coli BL21(DE3), clarified lysate
T2 sequence (P0A8Y8 1-137): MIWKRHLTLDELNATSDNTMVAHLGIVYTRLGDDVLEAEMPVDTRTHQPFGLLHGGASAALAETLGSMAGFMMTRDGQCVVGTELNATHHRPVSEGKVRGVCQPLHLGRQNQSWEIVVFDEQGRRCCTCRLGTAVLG

Structure (SMILES): CC(C)(COP(=O)(O)OP(=O)(O)OC[C@H]1O[C@@H](n2cnc3c(N)ncnc32)[C@H](O)[C@@H]1OP(=O)(O)O)[C@@H](O)C(=O)NCCC(=O)NCCSC(=O)C1CCCCC1 [CHC CoA, cyclohexanecarboxylic acid coenzyme A]
- DTNB assay on clarified lysate, empty-vector lysate control [1]: despite activity being found with CHC CoA, no activity was found with CHC-NAC

Structure (SMILES): CC(O)CC(=O)SCCNC(=O)CCNC(=O)[C@H](O)C(C)(C)COP(=O)(O)OP(=O)(O)OC[C@H]1O[C@@H](n2cnc3c(N)ncnc32)[C@H](O)[C@@H]1OP(=O)(O)O (mixture of isomers) [DLBH CoA, DL-β-hydroxybutyryl CoA]
- DTNB assay on clarified lysate, empty-vector lysate control [1]: PA2801 was found to have activity towards the aliphatic CoA esters: DLBH CoA

Structure (SMILES): CCCCCCCCCCCCCCCCC(=O)SCCNC(=O)CCNC(=O)[C@H](O)C(C)(C)COP(=O)(O)OP(=O)(O)OC[C@H]1O[C@@H](n2cnc3c(N)ncnc32)[C@H](O)[C@@H]1OP(=O)(O)O [nHD CoA, n-heptadecanoyl CoA]
- DTNB assay on clarified lysate, empty-vector lysate control [2]: YbdB was found to only have activity towards Bz CoA and nHD CoA

Structure (SMILES): CC(C)(COP(=O)(O)OP(=O)(O)OC[C@H]1O[C@@H](n2cnc3c(N)ncnc32)[C@H](O)[C@@H]1OP(=O)(O)O)[C@@H](O)C(=O)NCCC(=O)NCCSC(=O)c1ccccc1 [Bz CoA, Benzoyl CoA]
- DTNB assay on clarified lysate, empty-vector lysate control [2]: YbdB was found to only have activity towards Bz CoA and nHD CoA
